Results from paper PMC7396997, “Discovery of 4-Anilinoquinolinylchalcone Derivatives as Potential NRF2 Activators” (Molecules, 2020).
“And” between values parts separate entries of the source, which are not always exact repeats. Equal values may be shown once. Where a name gives a salt, the structure may show the parent alone. Read-outs that look alike come from different tables or passages of the source.

Key:
NRF2 = experiment: ARE-driven luciferase reporter assay (NRF2 activity) in HaCaT/ARE stable cells; assay type: cell-based, human; settings: for activity at 10 µM: HaCaT, read-out: % of Relative NRF2 Activity in HaCaT Cell; for activity at 10 µM / % of Relative NRF2 Activity in HaCaT Cell: 24 h (b12; method b59 says 18 h), luciferase normalised to cell viability, DMSO control = 100%, 10 μM; for Emax of NRF2 promoter activity / EC50: HaCaT/ARE cells, 18 h, dose-response; for EC50: read-out: EC50 of NRF2 promoter activity
Description: In this study, we used a stable ARE-driven reporter system to screen the potential NRF2 activators.

HaCaT/ARE cells = experiment: Cell viability (resazurin) in the reporter screen; settings: 10 μM; in % (unit assumed)
Experimental: Immortalized human keratinocytes HaCaT were cultured in the Dulbecco’s modified Eagle’s medium (DMEM; Gibco BRL, Grand Island, NY, USA) with 10% heat-inactivated fetal bovine serum (HyClone, Logan, UT, USA), penicillin (100 U/mL), and streptomycin (100 μg/mL) in a humidified incubator with 5% CO2. HaCaT/ARE stable cells were grown in DMEM supplemented with 100 μg/mL of hygromycin.
HaCaT/ARE stable cells were seeded (1 × 10^4 cells/well) in a 96 well plate, then were treated with indicated concentrations of compounds for 18 h. At the assay time point, resazurin (Cayman Chemical, Ann Arbor, MI, USA) was added to a final concentration of 0.1 mg/mL and further incubated for 4 h at 37 °C. Fluorescence of the reduced resazurin (ex/em: 530 nm/590 nm) was measured from the culture supernatant by using a Synergy HT Multi-Mode Reader (BioTek, Winooski, VT, USA) to determine cell viability. The cells were then harvested for luciferase activity measurements according to the manufacturer’s protocol (Promega Corporation, Madison, WI, USA). Relative luciferase activity was calculated by normalizing luciferase activity to cell viability, and DMSO solvent control was used as 100% activity.

[1] = Cytotoxicity, 72 h resazurin cell viability assay; assay type: cell-based, human; settings: human
Experimental: (§1) Cells were seeded in a 96-well plate contained 100 μL culture medium in triplicate and treated with several compounds for 72 h. At the assay time point, resazurin (Cayman Chemical) was added and further incubated for 4 h at 37 °C. Fluorescence of the reduced resazurin was measured as described previously.
(§2) Figure 3 The cytotoxicity of 12b, 13b, and 14b in HaCaT cells. HaCaT cells were treated with indicated concentrations of these three compounds for 72 h. Cell viability was determined by a resazurin assay as described in the Materials and Methods section. Data presented as mean ± SD from three independent experiments.

GCLM and NQO1 = test system: GCLM and NQO1; design: method as in PMID 21539383; settings: small intestine; cited from earlier work
HaCaT cells = experiment: Cytotoxicity, 72 h resazurin cell viability assay; assay type: cell-based, human
Experimental: as §1, §2

Compound | Cell Viability (HaCaT/ARE cells) | % of Relative NRF2 Activity in HaCaT Cell (NRF2) | other results
O=C(/C=C/c1cc(Nc2ccccc2)c2ccccc2n1)c1ccccc1 (as salt: hydrochloride) [12a, (E)-1-phenyl-3-[4-(phenylamino)quinolin-2-yl]prop-2-en-1-one] | – | – | melting point: 238.5 to 239.2 °C
CC(=O)c1ccc(Nc2cc(/C=C/C(=O)c3ccccc3)nc3ccccc23)cc1 (as salt: hydrochloride) [12b, (E)-3-{4-[(4-acetylphenyl)amino]quinolin-2-yl}-1-phenylprop-2-en-1-one] | – | – | melting point: 248.7 to 249.2 °C
O=C(O)c1ccc(Nc2cc(/C=C/C(=O)c3ccccc3)nc3ccccc23)cc1 (as salt: hydrochloride) [12c, (E)-4-{[2-(3-oxo-3-phenylprop-1-en-1-yl)quinolin-4-yl]amino}benzoic acid] | – | – | melting point: 298.3 to 298.9 °C
C/C(=N\OCCN)c1ccc(Nc2cc(/C=C/C(=O)c3ccccc3)nc3ccccc23)cc1 (as salt: hydrochloride) [12d] | – | – | melting point: 200.2 to 201.5 °C
C/C(=N\OCCCN(C)C)c1ccc(Nc2cc(/C=C/C(=O)c3ccccc3)nc3ccccc23)cc1 (as salt: hydrochloride) [12e, (E)-3-{4-{{4-{(E)-1-{[3-(dimethylamino)propoxy]imino}ethyl}phenyl}-amino}quinolin-2-yl}-1-phenylprop-2-en-1-one] | – | – | melting point: 155.6 to 156.6 °C
CCN(CC)CCOC(=O)c1ccc(Nc2cc(/C=C/C(=O)c3ccccc3)nc3ccccc23)cc1 (as salt: hydrochloride) [12h, 2-(Diethylamino)ethyl (E)-4-{[2-(3-oxo-3-phenylprop-1-en-1-yl)quinolin-4-yl]amino}benzoate] | – | – | melting point: 158.7 to 159.3 °C
CCN(CC)CCOC(=O)c1ccc(Nc2cc(/C=C/C(=O)c3ccc(F)cc3)nc3ccccc23)cc1 (as salt: hydrochloride) [13h, 2-(Diethylamino)ethyl (E)-4-{{2-[3-(4-fluorophenyl)-3-oxoprop-1-en-1-yl]-quinolin-4-yl}amino}benzoate] | – | – | melting point: 135.4 to 135.8 °C
CCN(CC)CCOC(=O)c1ccc(Nc2cc(/C=C/C(=O)c3ccc(OC)cc3)nc3ccccc23)cc1 (as salt: hydrochloride) [14h, 2-(Diethylamino)ethyl (E)-4-{{2-[3-(4-methoxyphenyl)-3-oxoprop-1-en-1-yl]-quinolin-4-yl}amino}benzoate] | – | – | melting point: 158.7 to 159.3 °C
O=C(/C=C/c1cc(Nc2ccccc2)c2ccccc2n1)c1ccccc1 [12a, (E)-1-phenyl-3-[4-(phenylamino)quinolin-2-yl]prop-2-en-1-one] | 67.65 ± 0.6 | – | activity at 10 µM (NRF2; Homo sapiens): 7%
CC(=O)c1ccc(Nc2cc(/C=C/C(=O)c3ccccc3)nc3ccccc23)cc1 [12b, (E)-3-{4-[(4-acetylphenyl)amino]quinolin-2-yl}-1-phenylprop-2-en-1-one] | 71.2 ± 1.8 | – | Emax of NRF2 promoter activity (NRF2): 692.8±53.3%; activity at 10 µM (NRF2; Homo sapiens): 394%; EC50 (NRF2; Homo sapiens): 0.85 ± 0.04 µM; CC50 at 72 h [1]: 9.3 µM
O=C(O)c1ccc(Nc2cc(/C=C/C(=O)c3ccccc3)nc3ccccc23)cc1 [12c, (E)-4-{[2-(3-oxo-3-phenylprop-1-en-1-yl)quinolin-4-yl]amino}benzoic acid] | 81.4 ± 0.8 | – | activity at 10 µM (NRF2; Homo sapiens): 75%
C/C(=N\OCCN)c1ccc(Nc2cc(/C=C/C(=O)c3ccccc3)nc3ccccc23)cc1 [12d] | 68.4 ± 1.3 | – | activity at 10 µM (NRF2; Homo sapiens): 287%
C/C(=N\OCCCN(C)C)c1ccc(Nc2cc(/C=C/C(=O)c3ccccc3)nc3ccccc23)cc1 [12e, (E)-3-{4-{{4-{(E)-1-{[3-(dimethylamino)propoxy]imino}ethyl}phenyl}-amino}quinolin-2-yl}-1-phenylprop-2-en-1-one] | 69.5 ± 0.9 | – | activity at 10 µM (NRF2; Homo sapiens): 95%
CCN(CC)CCNC(=O)c1ccc(Nc2cc(/C=C/C(=O)c3ccccc3)nc3ccccc23)cc1 [12f] | 78.8 ± 0.1 | – | activity at 10 µM (NRF2; Homo sapiens): 26%
CCN(CC)CCOC(=O)c1ccc(Nc2cc(/C=C/C(=O)c3ccccc3)nc3ccccc23)cc1 [12h, 2-(Diethylamino)ethyl (E)-4-{[2-(3-oxo-3-phenylprop-1-en-1-yl)quinolin-4-yl]amino}benzoate] | 71.1 ± 1.2 | – | –
CCN(CC)CCNC(=O)c1ccc(Nc2cc(/C=C/C(=O)c3ccc(OC)cc3)nc3ccccc23)cc1 [13f] | 88.7 ± 1.9 | – | –
CCN(CC)CCOC(=O)c1ccc(Nc2cc(/C=C/C(=O)c3ccc(F)cc3)nc3ccccc23)cc1 [13h, 2-(Diethylamino)ethyl (E)-4-{{2-[3-(4-fluorophenyl)-3-oxoprop-1-en-1-yl]-quinolin-4-yl}amino}benzoate] | 82.7 ± 1.7 | – | –

Compound | Cell Viability (HaCaT/ARE cells) | % of Relative NRF2 Activity in HaCaT Cell (NRF2) | other results
C/C(=N\OCCCN(C)C)c1ccc(Nc2cc(/C=C/C(=O)c3ccc(F)cc3)nc3ccccc23)cc1 [14e] | 76.7 ± 0.2 | – | activity at 10 µM (NRF2; Homo sapiens): 193%
CCN(CC)CCNC(=O)c1ccc(Nc2cc(/C=C/C(=O)c3ccc(F)cc3)nc3ccccc23)cc1 [14f] | 66.3 ± 2.6 | 6.0 ± 0.3% | activity at 10 µM (NRF2; Homo sapiens): 6%
CCN(CC)CCOC(=O)c1ccc(Nc2cc(/C=C/C(=O)c3ccc(OC)cc3)nc3ccccc23)cc1 [14h, 2-(Diethylamino)ethyl (E)-4-{{2-[3-(4-methoxyphenyl)-3-oxoprop-1-en-1-yl]-quinolin-4-yl}amino}benzoate] | 76.8 ± 0.2 | – | activity at 10 µM (NRF2; Homo sapiens): 127%
COc1ccccc1C(=O)/C=C/c1ccccc1C(F)(F)F [Compound 1, (E)-1-(2-methoxyphenyl)-3-[2-(trifluoromethyl)phenyl]prop-2-en-1-one] | – | – | expression of GCLM compared to sulforaphane (GCLM and NQO1): 3 fold; expression of NQO1 compared to sulforaphane (GCLM and NQO1): 5 fold
COc1ccc(/C=C/C(=O)c2c(O)cc(OC)cc2OC)cc1 [Flavokawain A, reference compound] | 95.9 ± 1.6 | – | –
CC(C)(C)c1cc(O)ccc1O [t-BHQ, tert-Butyl hydroquinone, reference compound] | 97.7 ± 1.5 | 1880% and 1880.4 ± 97.2% | –
(E)-1-(4-Fluorophenyl)-3-[4-(phenylamino)quinolin-2-yl]prop-2-en-1-one [13a] | – | 6% and 5.5 ± 0.17% | –
(E)-1-(4-Methoxyphenyl)-3-[4-(phenylamino)quinolin-2-yl]prop-2-en-1-one [14a] | – | 7% and 7.1 ± 1.3% | –
(E)-3-{4-[(4-Acetylphenyl)amino]quinolin-2-yl}-1-(4-methoxyphenyl)prop-2-en-1-one [14b] | – | 937% and 936.5 ± 39.8% | Emax of NRF2 promoter activity (NRF2): 748.5±73.6%; EC50 (NRF2): 1.58 ± 0.15 µM; CC50 (HaCaT cells): 28.4 µM
(E)-3-{4-{{4-{(E)-1-[(2-Aminoethoxy)imino]ethyl}phenyl}amino}quinolin-2-yl}-1-(4-fluorophenyl)prop-2-en-1-one [13d] | – | 1697% and 1697.3 ± 39.8% | –
(E)-3-{4-{{4-{(E)-1-[(2-Aminoethoxy)imino]ethyl}phenyl}amino}quinolin-2-yl}-1-(4-methoxyphenyl)prop-2-en-1-one [14d] | – | 229% and 229.4 ± 68.4% | –
(E)-3-{4-{{4-{(E)-1-{[2-(Dimethylamino)ethoxy]imino}ethyl}phenyl}-amino}quinolin-2-yl}-1-(4-fluorophenyl)prop-2-en-1-one [13e] | – | 2145% and 2144.7 ± 168.6% | –
(E)-4-({2-[3-(4-Fluorophenyl)-3-oxoprop-1-en-1-yl]quinolin-4-yl}amino)-benzoic acid [13c] | 74.5 ± 1.1 | 147% and 147.3 ± 51.7% | –
(E)-4-{{2-[3-(4-Methoxyphenyl)-3-oxoprop-1-en-1-yl]quinolin-4-yl}-amino}benzoic acid [14c] | 70.8 ± 1.9 | 212% and 212.6 ± 93.6% | –
(E)-N-[2-(Diethylamino)ethyl]-4-{{2-[3-(4-fluorophenyl)-3-oxoprop-1-en-1-yl]quinolin-4-yl}amino}benzamide [13g] | 78.7 ± 0.5 | 5% and 5.1 ± 0.42% | –
(E)-N-[2-(Diethylamino)ethyl]-4-{{2-[3-(4-methoxyphenyl)-3-oxoprop-1-en-1-yl]quinolin-4-yl}amino}benzamide [14g] | 77.6 ± 1.5 | 5% and 5.1 ± 0.18% | –
